# Patent US20170037125A1, “COMBINATION OF A PD-1 ANTAGONIST AND AN IDO1 INHIBITOR FOR TREATING CANCER” (INCYTE CORPORATION, priority 2014, published 2017)
# Marks after values point to notes of the source that are not given here.
# Legend:
# [1] = target: human indoleamine 2,3-dioxygenasae (IDO) (Homo sapiens, UniProt P14902); settings: human IDO enzyme assay; see U.S. Pat. No. 8,088,803; cited from earlier work
# [2] = tested on: selected advanced or metastatic solid tumors; test: Phase 1 dose-escalation clinical study of INCB024360 in combination with MK-3475: tumor response (modified RECIST v1.1); assay type: in vivo, human; settings: for CR, patients / NE (not evaluable), patients / PD, patients / PR, patients: preliminary
# Description: Phase 1 of the study is a dose-escalation phase and Phase 2 is randomized, double-blind, and placebo-controlled. Phase 1 of the study is conducted in subjects with selected advanced or metastatic solid tumors. Phase 2 of the study is conducted in subjects with advanced NSCLC, e.g., Stage IIIB, IV, or recurrent NSCLC. […] The Phase 1 dose-escalation phase includes cohorts of subjects treated with INCB024360 twice daily (BID) at initial doses of 25 mg BID, 50 mg BID, and 100 mg BID in combination with MK-3475 at 2 mg/kg every 3 weeks. One treatment cycle consists of 21 days. A minimum of 3 subjects are enrolled and treated in each cohort, and all 3 subjects are observed for a minimum of 42 days (6 weeks) before the subsequent cohort begins enrollment. […] The study subject cohorts are summarized as follows: For treatment, INCB024360 is self-administered orally BID and continued BID during the 21-day cycle for an every-3-week dose schedule of MK-3475. The MTD of INCB024360 (or PAD) defined during Phase 1 is used for Phase 2. All BID doses are taken morning and evening, approximately 12 hours apart without respect to food. If a dose is missed by more than 4 hours, that dose is skipped and is resumed at the scheduled time. […] Study subject participation averages about 6 months. The Study Schedule and Procedures for the Phase 1/2 study are as follows: […] Liver function test monitoring occurs weekly during the first 6 weeks of study treatment during Phase 1 and then is tested every 3 weeks thereafter and in Phase 2 for subjects who remain on study treatment. Assessment of tumor size (by magnetic resonance imaging or computed tomography scan) is performed at screening or baseline (before beginning therapy), every 9 weeks for 18 months, and then every 12 weeks thereafter until disease progression. Disease progression is defined as progression confirmed by a second, consecutive assessment at least 4 weeks apart with the option for continuing treatment while awaiting radiologic confirmation of progression where feasible, and where subjects are clinically stable, defined as the following: absence of signs and symptoms (including worsening of laboratory values) indicating disease progression, no decline in ECOG performance status, absence of rapid progression of disease, and absence of progressive tumors at critical anatomical sites (e.g., cord compression) requiring urgent alternative medical intervention. […] In accordance with the protocol, INCB024360 was administered in combination with MK-3475. MK-3475 was intravenously administered at a dose of 2 mg/kg as described.
# [3] = Phase 1 dose-escalation clinical study of INCB024360 in combination with MK-3475: adverse events; assay type: in vivo
# Description: This Example describes an ongoing Phase 1/2 clinical study to evaluate the safety, tolerability and efficacy of the inventive combination of MK-3475 and INCB024360 in subjects presenting with various solid tumors and advanced non-small cell lung cancer (NSCLC). Phase 1 of the study is a dose-escalation phase and Phase 2 is randomized, double-blind, and placebo-controlled. Phase 1 of the study is conducted in subjects with selected advanced or metastatic solid tumors. Phase 2 of the study is conducted in subjects with advanced NSCLC, e.g., Stage IIIB, IV, or recurrent NSCLC. The dose-escalation phase (Phase 1) is open-label and is designed to identify the maximum tolerated dose (MTD) or pharmacologically acceptable doses (PAD) of INCB024360 in combination with MK-3475 in subjects with Stage IIIB, IV, or recurrent NSCLC, melanoma, transitional cell carcinoma of the genitourinary (GU) tract, renal cell cancer, triple negative breast cancer, adenocarcinoma of the endometrium or squamous cell carcinoma of the head and neck who have disease progression on at least 1 line of therapy for advanced or metastatic cancer.
# The Phase 1 dose-escalation phase includes cohorts of subjects treated with INCB024360 twice daily (BID) at initial doses of 25 mg BID, 50 mg BID, and 100 mg BID in combination with MK-3475 at 2 mg/kg every 3 weeks. One treatment cycle consists of 21 days. A minimum of 3 subjects are enrolled and treated in each cohort, and all 3 subjects are observed for a minimum of 42 days (6 weeks) before the subsequent cohort begins enrollment. Additional subjects are enrolled in a cohort to achieve the minimum of 3 evaluable subjects if dropouts or dose interruptions or reductions occur that result in a subject being nonevaluable for dose limiting toxicities (DLTs). When the MTD or PAD is reached, additional subjects are enrolled for a total of 9 subjects, but the additional subjects are treated with MK-3475 at 200 mg every 3 weeks and the MTD or PAD of INCB024360 to further evaluate safety and confirm it as the recommended Phase 2 dose (RP2D). The study subject cohorts are summarized as follows:
# For treatment, INCB024360 is self-administered orally BID and continued BID during the 21-day cycle for an every-3-week dose schedule of MK-3475. The MTD of INCB024360 (or PAD) defined during Phase 1 is used for Phase 2. All BID doses are taken morning and evening, approximately 12 hours apart without respect to food. If a dose is missed by more than 4 hours, that dose is skipped and is resumed at the scheduled time. MK-3475 is administered at 2 mg/kg or 200 mg intravenously (IV) over a 30-minute period on Day 1 of an every-3-week cycle, with no intrasubject dose escalation. Study subject participation averages about 6 months.
# Primary endpoints of the Phase 1 study are as follows: Safety and tolerability are assessed by monitoring frequency, duration and severity of AEs, through physical examinations, by evaluating changes in vital signs and electrocardiograms, and through clinical laboratory blood and urine sample evaluations. Primary endpoints of the Phase 2 study are as follows: Progression-free survival, defined as the time from randomization until the earliest date of disease progression, as determined by investigator assessment of objective radiographic disease assessments per modified RECIST v1.1, or death due to any cause, if occurring sooner than progression. Imaging is archived for possible retrospective central confirmation of disease progression and response.
# Table 4 below presents preliminary data of adverse events (AEs), including immune-related AEs, reported in the described study.
# [4] = INCB024360 25 mg BID (n = 4) with MK-3475 2 mg/kg IV
# [5] = INCB024360 50 mg BID (n = 4) with MK-3475 2 mg/kg IV
# [6] = subjects evaluable for response, both cohorts, with MK-3475
# [7] = Grade 3 or 4, 25 mg BID (n = 4)
# [8] = Grade 3 or 4, 50 mg BID (n = 8)
# Sequence of human indoleamine 2,3-dioxygenasae (IDO) (P14902 whole entry): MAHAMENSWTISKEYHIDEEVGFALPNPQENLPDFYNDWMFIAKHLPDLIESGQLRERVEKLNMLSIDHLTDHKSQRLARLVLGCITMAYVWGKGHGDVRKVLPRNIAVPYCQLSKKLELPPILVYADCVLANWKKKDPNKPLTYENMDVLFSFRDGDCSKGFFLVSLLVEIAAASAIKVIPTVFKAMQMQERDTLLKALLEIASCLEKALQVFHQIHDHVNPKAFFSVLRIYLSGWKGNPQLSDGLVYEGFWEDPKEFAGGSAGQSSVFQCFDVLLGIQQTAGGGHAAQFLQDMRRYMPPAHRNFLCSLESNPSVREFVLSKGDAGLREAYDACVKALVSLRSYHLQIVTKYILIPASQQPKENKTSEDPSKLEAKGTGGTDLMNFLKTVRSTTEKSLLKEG
compound,measurement,setting,value
"NS(=O)(=O)NCCNc1nonc1C(=NO)Nc1ccc(F)c(C(F)(F)F)c1 [Compound 3, 4-({2-[(aminosulfonyl)amino]ethyl}amino)-N-[4-fluoro-3-(trifluoromethyl)phenyl]-N′-hydroxy-1,2,5-oxadiazole-3-carboximidamide]",IC50,[1],< 0.1 µM
"NS(=O)(=O)NCCNc1nonc1C(=NO)Nc1ccc(F)c(Br)c1 [Compound 1, 4-({2-[(aminosulfonyl)amino]ethyl}amino)-N-(3-bromo-4-fluorophenyl)-N′-hydroxy-1,2,5-oxadiazole-3-carboximidamide]",response of a subject having melanoma (MEL),"[2]; 25 mg BID Cohort, stable, with MK-3475 2 mg/kg IV",stable disease (SD)
same,response of a subject having transitional cell carcinoma (TCC) in bladder,"[2]; 25 mg BID Cohort, with MK-3475 2 mg/kg IV",partial response (PR)
same,response of a subject with melanoma (MEL),"[2]; 50 mg BID Cohort, first melanoma subject, with MK-3475 2 mg/kg IV",complete response (CR)
same,response of a subject with melanoma (MEL),"[2]; 50 mg BID cohort, further melanoma subject, with MK-3475 2 mg/kg IV",partial response (PR)
same,total best overall response (per modified RECIST v1.1),"[2]; 25 and 50 mg BID cohorts pooled, only subjects evaluable for response (5/7), with MK-3475",71%
same,disease control rate,"[2]; 25 and 50 mg BID cohorts pooled, only subjects evaluable for response (7/7), with MK-3475",100%
same,"CR, patients",[2]; [4],0 n (%)
same,"NE (not evaluable), patients",[2]; [4],0 n (%)
same,"PD, patients",[2]; [4],0 n (%)
same,"PR, patients",[2]; [4],2 (50%) n (%)
same,"CR, patients",[2]; [5],1 (33%) n (%)
same,"NE (not evaluable), patients",[2]; [5],1** n (%)
same,"PD, patients",[2]; [5],0 n (%)
same,"PR, patients",[2]; [5],2 (67%) n (%)
same,Disease Control Rate (DCR),[2]; [6],7/7
same,Objective response rate (ORR),[2]; [6],4/7
same,Grade 3 rash related to dose limiting toxicity (DLT),[3]; 50 mg BID cohort,one
same,Cough (AE),"[3]; All Grades, 25 mg BID (n = 4)",2 n (%)
same,"DVT (IJ) (AE; Deep Vein Thrombosis, Internal Jugular)","[3]; All Grades, 25 mg BID (n = 4)",1 n (%)
same,Diarrhea (AE),"[3]; All Grades, 25 mg BID (n = 4)",2 n (%)
same,Dyspnea (AE),"[3]; All Grades, 25 mg BID (n = 4)",1 n (%)
same,Fall (AE),"[3]; All Grades, 25 mg BID (n = 4)",0 n (%)
same,Fatigue (AE),"[3]; All Grades, 25 mg BID (n = 4)",0 n (%)
same,Headache (AE),"[3]; All Grades, 25 mg BID (n = 4)",1 n (%)
same,Mild Infusion Reaction (AE),"[3]; All Grades, 25 mg BID (n = 4)",0 n (%)
same,Nausea (AE),"[3]; All Grades, 25 mg BID (n = 4)",2 n (%)
same,Pruritis (AE),"[3]; All Grades, 25 mg BID (n = 4)",1 n (%)
same,Rash (AE),"[3]; All Grades, 25 mg BID (n = 4)",0 n (%)
same,Cough (AE),"[3]; All Grades, 50 mg BID (n = 8)",0 n (%)
same,"DVT (IJ) (AE; Deep Vein Thrombosis, Internal Jugular)","[3]; All Grades, 50 mg BID (n = 8)",0 n (%)
same,Diarrhea (AE),"[3]; All Grades, 50 mg BID (n = 8)",0 n (%)
same,Dyspnea (AE),"[3]; All Grades, 50 mg BID (n = 8)",0 n (%)
same,Fall (AE),"[3]; All Grades, 50 mg BID (n = 8)",1 n (%)
same,Fatigue (AE),"[3]; All Grades, 50 mg BID (n = 8)",1 n (%)
same,Headache (AE),"[3]; All Grades, 50 mg BID (n = 8)",0 n (%)
same,Mild Infusion Reaction (AE),"[3]; All Grades, 50 mg BID (n = 8)",1 n (%)
same,Nausea (AE),"[3]; All Grades, 50 mg BID (n = 8)",1 n (%)
same,Pruritis (AE),"[3]; All Grades, 50 mg BID (n = 8)",0 n (%)
same,Rash (AE),"[3]; All Grades, 50 mg BID (n = 8)",2 n (%)
same,Cough (AE),"[3]; All Grades, Total (N = 12)",2 n (%)
same,"DVT (IJ) (AE; Deep Vein Thrombosis, Internal Jugular)","[3]; All Grades, Total (N = 12)",1 n (%)
same,Diarrhea (AE),"[3]; All Grades, Total (N = 12)",2 n (%)
same,Dyspnea (AE),"[3]; All Grades, Total (N = 12)",1 n (%)
same,Fall (AE),"[3]; All Grades, Total (N = 12)",1 n (%)
same,Fatigue (AE),"[3]; All Grades, Total (N = 12)",1 n (%)
same,Headache (AE),"[3]; All Grades, Total (N = 12)",1 n (%)
same,Mild Infusion Reaction (AE),"[3]; All Grades, Total (N = 12)",1 n (%)
same,Nausea (AE),"[3]; All Grades, Total (N = 12)",3 n (%)
same,Pruritis (AE),"[3]; All Grades, Total (N = 12)",1 n (%)
same,Rash (AE),"[3]; All Grades, Total (N = 12)",2 n (%)
same,Cough (AE),[3]; [7],0 n (%)
same,"DVT (IJ) (AE; Deep Vein Thrombosis, Internal Jugular)",[3]; [7],0 n (%)
same,Dyspnea (AE),[3]; [7],0 n (%)
same,Fall (AE),[3]; [7],0 n (%)
same,Fatigue (AE),[3]; [7],0 n (%)
same,Headache (AE),[3]; [7],0 n (%)
same,Mild Infusion Reaction (AE),[3]; [7],0 n (%)
same,Nausea (AE),[3]; [7],0 n (%)
same,Pruritis (AE),[3]; [7],0 n (%)
same,Rash (AE),[3]; [7],0 n (%)
same,Cough (AE),[3]; [8],0 n (%)
same,"DVT (IJ) (AE; Deep Vein Thrombosis, Internal Jugular)",[3]; [8],0 n (%)
same,Dyspnea (AE),[3]; [8],0 n (%)
same,Fatigue (AE),[3]; [8],0 n (%)
same,Headache (AE),[3]; [8],0 n (%)
same,Mild Infusion Reaction (AE),[3]; [8],0 n (%)
same,Nausea (AE),[3]; [8],0 n (%)
same,Pruritis (AE),[3]; [8],0 n (%)
same,Rash (AE),[3]; [8],1 n (%)
same,Fall (AE),"[3]; Grade 3 or 4, 50 mg BID (n = 8), not related to study treatment",1 n (%)
same,Cough (AE),"[3]; Grade 3 or 4, Total (N = 12)",0 n (%)
same,"DVT (IJ) (AE; Deep Vein Thrombosis, Internal Jugular)","[3]; Grade 3 or 4, Total (N = 12)",0 n (%)
same,Dyspnea (AE),"[3]; Grade 3 or 4, Total (N = 12)",0 n (%)
same,Fall (AE),"[3]; Grade 3 or 4, Total (N = 12)",1 n (%)
same,Fatigue (AE),"[3]; Grade 3 or 4, Total (N = 12)",0 n (%)
same,Headache (AE),"[3]; Grade 3 or 4, Total (N = 12)",0 n (%)
same,Mild Infusion Reaction (AE),"[3]; Grade 3 or 4, Total (N = 12)",0 n (%)
same,Nausea (AE),"[3]; Grade 3 or 4, Total (N = 12)",0 n (%)
same,Pruritis (AE),"[3]; Grade 3 or 4, Total (N = 12)",0 n (%)
same,Rash (AE),"[3]; Grade 3 or 4, Total (N = 12)",1 n (%)
